Results as given in ChEMBL document CHEMBL1144021, “Molecular determinants of the anticonvulsant felbamate binding site in the N-methyl-D-aspartate receptor” (J Med Chem, 2008).
The source made the active and inactive calls. The rule behind the calls is not given here.

Key:
[1] = system: Glutamate receptor ionotropic, NMDA 2B (Homo sapiens), Q13224 [S546A]; test: Inhibition of NR2B receptor Pre-M1 S546A mutant expressed in Xenopus oocytes assessed as NMDA current at 0.5 mM relative to control; type: cell-based; details: Oocyte
[2] = system: Glutamate receptor ionotropic, NMDA 2B (Homo sapiens), Q13224 [S645A]; test: Binding affinity to NR2B receptor M3c S645A mutant
[3] = system: Glutamate receptor ionotropic, NMDA 2B (Homo sapiens), Q13224 [A652T]; test: Binding affinity to NR2B receptor M3c A652T mutant
Glutamate receptor ionotropic, NMDA 2B (Homo sapiens), Q13224 [A652T], sequence (Q13224 whole entry A652T): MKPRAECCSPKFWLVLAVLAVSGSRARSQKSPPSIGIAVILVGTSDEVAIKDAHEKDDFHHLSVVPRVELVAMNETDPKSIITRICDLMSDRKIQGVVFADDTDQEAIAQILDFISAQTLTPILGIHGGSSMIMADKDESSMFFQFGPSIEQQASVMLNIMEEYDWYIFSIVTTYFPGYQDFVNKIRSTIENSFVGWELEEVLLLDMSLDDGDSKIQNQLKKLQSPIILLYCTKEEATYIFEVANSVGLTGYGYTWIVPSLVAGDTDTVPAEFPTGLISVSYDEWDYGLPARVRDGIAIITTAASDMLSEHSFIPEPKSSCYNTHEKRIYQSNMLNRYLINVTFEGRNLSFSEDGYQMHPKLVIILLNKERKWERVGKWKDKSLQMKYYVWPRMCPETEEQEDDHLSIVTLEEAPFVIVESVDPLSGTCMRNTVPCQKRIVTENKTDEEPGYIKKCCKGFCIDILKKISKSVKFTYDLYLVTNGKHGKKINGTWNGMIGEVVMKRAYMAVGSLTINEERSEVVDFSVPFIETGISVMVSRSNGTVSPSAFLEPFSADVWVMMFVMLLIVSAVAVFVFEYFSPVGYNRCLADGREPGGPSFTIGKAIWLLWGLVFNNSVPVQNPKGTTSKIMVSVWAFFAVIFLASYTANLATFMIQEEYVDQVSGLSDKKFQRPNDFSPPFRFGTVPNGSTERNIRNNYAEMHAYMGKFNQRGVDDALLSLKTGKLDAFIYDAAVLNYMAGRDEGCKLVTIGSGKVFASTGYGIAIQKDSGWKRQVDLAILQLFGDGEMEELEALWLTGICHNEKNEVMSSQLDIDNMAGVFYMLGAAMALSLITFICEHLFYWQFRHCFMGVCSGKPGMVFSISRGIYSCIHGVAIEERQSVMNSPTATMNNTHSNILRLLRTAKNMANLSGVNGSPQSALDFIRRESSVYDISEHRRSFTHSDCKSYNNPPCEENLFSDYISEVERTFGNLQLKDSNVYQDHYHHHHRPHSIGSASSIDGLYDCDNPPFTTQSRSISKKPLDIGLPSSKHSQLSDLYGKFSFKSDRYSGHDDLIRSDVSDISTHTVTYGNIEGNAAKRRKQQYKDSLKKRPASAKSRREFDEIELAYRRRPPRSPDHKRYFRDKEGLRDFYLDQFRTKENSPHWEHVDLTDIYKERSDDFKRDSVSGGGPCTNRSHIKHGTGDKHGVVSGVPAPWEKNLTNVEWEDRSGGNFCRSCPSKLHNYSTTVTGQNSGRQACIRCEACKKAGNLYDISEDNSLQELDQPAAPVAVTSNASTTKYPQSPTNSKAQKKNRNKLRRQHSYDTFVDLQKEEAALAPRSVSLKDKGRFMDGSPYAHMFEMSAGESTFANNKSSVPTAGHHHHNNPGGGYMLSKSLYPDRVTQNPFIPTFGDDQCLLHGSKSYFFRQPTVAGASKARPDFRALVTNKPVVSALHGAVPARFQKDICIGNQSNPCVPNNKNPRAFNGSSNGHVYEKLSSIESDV

[4] = system: Glutamate receptor ionotropic, NMDA 2B (Homo sapiens), Q13224 [D101A]; test: Inhibition of NR2B receptor ATD D101A mutant expressed in Xenopus oocytes assessed as NMDA current at 0.5 mM relative to control; type: cell-based; details: Oocyte
[5] = system: Glutamate receptor ionotropic, NMDA 2B (Homo sapiens), Q13224 [T103A]; test: Inhibition of NR2B receptor ATD T103A mutant expressed in Xenopus oocytes assessed as NMDA current at 0.5 mM relative to control; type: cell-based; details: Oocyte
[6] = system: Glutamate receptor ionotropic, NMDA 2B (Homo sapiens), Q13224 [F182A]; test: Inhibition of NR2B receptor ATD F182A mutant expressed in Xenopus oocytes assessed as NMDA current at 0.5 mM relative to control; type: cell-based; details: Oocyte
[7] = system: Glutamate receptor ionotropic, NMDA 2B (Homo sapiens), Q13224 [F550A]; test: Inhibition of NR2B receptor Pre-M1 F550A mutant expressed in Xenopus oocytes assessed as NMDA current at 0.5 mM relative to control; type: cell-based; details: Oocyte
[8] = system: Glutamate receptor ionotropic, NMDA 2B (Homo sapiens), Q13224 [E552A]; test: Inhibition of NR2B receptor Pre-M1 E552A mutant expressed in Xenopus oocytes assessed as NMDA current at 0.5 mM relative to control; type: cell-based; details: Oocyte
Glutamate receptor ionotropic, NMDA 2B (Homo sapiens), Q13224 [E552A], sequence (Q13224 whole entry E552A): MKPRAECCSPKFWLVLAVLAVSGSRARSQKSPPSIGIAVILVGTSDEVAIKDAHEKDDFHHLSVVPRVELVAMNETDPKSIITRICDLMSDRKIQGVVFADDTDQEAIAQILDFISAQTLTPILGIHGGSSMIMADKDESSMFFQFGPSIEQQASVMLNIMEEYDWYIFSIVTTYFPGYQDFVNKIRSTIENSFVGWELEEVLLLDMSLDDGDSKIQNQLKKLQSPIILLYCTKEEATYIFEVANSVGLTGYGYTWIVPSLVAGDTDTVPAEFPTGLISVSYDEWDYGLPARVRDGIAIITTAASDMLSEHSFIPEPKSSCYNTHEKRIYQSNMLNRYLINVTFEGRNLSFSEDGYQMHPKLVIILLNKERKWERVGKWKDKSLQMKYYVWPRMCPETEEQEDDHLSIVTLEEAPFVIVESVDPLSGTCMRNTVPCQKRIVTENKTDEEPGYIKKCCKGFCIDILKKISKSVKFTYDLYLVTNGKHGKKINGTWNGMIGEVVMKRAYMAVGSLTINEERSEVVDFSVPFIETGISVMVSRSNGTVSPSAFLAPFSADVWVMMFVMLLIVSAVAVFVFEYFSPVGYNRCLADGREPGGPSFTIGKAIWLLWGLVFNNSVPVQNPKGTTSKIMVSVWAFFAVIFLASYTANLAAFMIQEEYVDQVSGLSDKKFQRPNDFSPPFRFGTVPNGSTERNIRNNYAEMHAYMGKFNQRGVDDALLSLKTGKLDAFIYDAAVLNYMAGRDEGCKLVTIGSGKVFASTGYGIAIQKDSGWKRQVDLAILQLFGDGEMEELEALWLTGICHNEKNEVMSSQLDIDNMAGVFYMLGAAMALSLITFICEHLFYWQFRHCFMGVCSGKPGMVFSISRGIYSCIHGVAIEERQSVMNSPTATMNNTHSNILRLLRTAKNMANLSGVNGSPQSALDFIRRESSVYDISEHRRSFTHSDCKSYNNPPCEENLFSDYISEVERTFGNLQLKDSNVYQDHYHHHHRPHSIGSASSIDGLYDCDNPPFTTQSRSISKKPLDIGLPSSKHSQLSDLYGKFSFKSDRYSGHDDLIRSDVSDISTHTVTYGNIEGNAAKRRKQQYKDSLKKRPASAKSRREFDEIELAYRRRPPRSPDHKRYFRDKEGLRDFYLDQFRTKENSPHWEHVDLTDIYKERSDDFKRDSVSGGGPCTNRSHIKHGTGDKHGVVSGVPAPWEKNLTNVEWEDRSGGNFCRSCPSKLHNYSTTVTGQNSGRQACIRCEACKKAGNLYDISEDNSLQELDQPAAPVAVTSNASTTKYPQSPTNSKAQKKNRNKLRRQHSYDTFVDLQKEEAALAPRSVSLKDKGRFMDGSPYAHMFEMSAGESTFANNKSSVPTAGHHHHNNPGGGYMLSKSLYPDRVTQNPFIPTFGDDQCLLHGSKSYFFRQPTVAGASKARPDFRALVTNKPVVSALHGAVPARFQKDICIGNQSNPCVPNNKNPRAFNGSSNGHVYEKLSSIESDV

[9] = system: Glutamate receptor ionotropic, NMDA 2B (Homo sapiens), Q13224 [F554A]; test: Inhibition of NR2B receptor Pre-M1 F554A mutant expressed in Xenopus oocytes assessed as NMDA current at 0.5 mM relative to control; type: cell-based; details: Oocyte
[10] = system: Glutamate receptor ionotropic, NMDA 2B (Homo sapiens), Q13224 [D557A]; test: Inhibition of NR2B receptor Pre-M1 D557A mutant expressed in Xenopus oocytes assessed as NMDA current at 0.5 mM relative to control; type: cell-based; details: Oocyte
[11] = system: Glutamate receptor ionotropic, NMDA 2B (Homo sapiens), Q13224 [V558A]; test: Inhibition of NR2B receptor Pre-M1 V558A mutant expressed in Xenopus oocytes assessed as NMDA current at 0.5 mM relative to control; type: cell-based; details: Oocyte
[12] = system: Glutamate receptor ionotropic, NMDA 2B (Homo sapiens), Q13224 [W559A]; test: Inhibition of NR2B receptor Pre-M1 W559A mutant expressed in Xenopus oocytes assessed as NMDA current at 0.5 mM relative to control; type: cell-based; details: Oocyte
[13] = system: Glutamate receptor ionotropic, NMDA 2B (Homo sapiens), Q13224 [V640A]; test: Inhibition of NR2B receptor M3c V640A mutant expressed in Xenopus oocytes assessed as NMDA current at 0.5 mM relative to control; type: cell-based; details: Oocyte
[14] = system: Glutamate receptor ionotropic, NMDA 2B (Homo sapiens), Q13224 [I641A]; test: Inhibition of NR2B receptor M3c I641A mutant expressed in Xenopus oocytes assessed as NMDA current at 0.5 mM relative to control; type: cell-based; details: Oocyte
[15] = system: Glutamate receptor ionotropic, NMDA 2B (Homo sapiens), Q13224 [F642A]; test: Inhibition of NR2B receptor M3c F642A mutant expressed in Xenopus oocytes assessed as NMDA current at 0.5 mM relative to control; type: cell-based; details: Oocyte
[16] = system: Glutamate receptor ionotropic, NMDA 2B (Homo sapiens), Q13224 [A644C]; test: Inhibition of NR2B receptor M3c A644C mutant expressed in Xenopus oocytes assessed as NMDA current at 0.5 mM relative to control; type: cell-based; details: Oocyte
[17] = system: Glutamate receptor ionotropic, NMDA 2B (Homo sapiens), Q13224 [A648C]; test: Inhibition of NR2B receptor M3c A648C mutant expressed in Xenopus oocytes assessed as NMDA current at 0.5 mM relative to control; type: cell-based; details: Oocyte
Glutamate receptor ionotropic, NMDA 2B (Homo sapiens), Q13224 [A648C], sequence (Q13224 whole entry A648C): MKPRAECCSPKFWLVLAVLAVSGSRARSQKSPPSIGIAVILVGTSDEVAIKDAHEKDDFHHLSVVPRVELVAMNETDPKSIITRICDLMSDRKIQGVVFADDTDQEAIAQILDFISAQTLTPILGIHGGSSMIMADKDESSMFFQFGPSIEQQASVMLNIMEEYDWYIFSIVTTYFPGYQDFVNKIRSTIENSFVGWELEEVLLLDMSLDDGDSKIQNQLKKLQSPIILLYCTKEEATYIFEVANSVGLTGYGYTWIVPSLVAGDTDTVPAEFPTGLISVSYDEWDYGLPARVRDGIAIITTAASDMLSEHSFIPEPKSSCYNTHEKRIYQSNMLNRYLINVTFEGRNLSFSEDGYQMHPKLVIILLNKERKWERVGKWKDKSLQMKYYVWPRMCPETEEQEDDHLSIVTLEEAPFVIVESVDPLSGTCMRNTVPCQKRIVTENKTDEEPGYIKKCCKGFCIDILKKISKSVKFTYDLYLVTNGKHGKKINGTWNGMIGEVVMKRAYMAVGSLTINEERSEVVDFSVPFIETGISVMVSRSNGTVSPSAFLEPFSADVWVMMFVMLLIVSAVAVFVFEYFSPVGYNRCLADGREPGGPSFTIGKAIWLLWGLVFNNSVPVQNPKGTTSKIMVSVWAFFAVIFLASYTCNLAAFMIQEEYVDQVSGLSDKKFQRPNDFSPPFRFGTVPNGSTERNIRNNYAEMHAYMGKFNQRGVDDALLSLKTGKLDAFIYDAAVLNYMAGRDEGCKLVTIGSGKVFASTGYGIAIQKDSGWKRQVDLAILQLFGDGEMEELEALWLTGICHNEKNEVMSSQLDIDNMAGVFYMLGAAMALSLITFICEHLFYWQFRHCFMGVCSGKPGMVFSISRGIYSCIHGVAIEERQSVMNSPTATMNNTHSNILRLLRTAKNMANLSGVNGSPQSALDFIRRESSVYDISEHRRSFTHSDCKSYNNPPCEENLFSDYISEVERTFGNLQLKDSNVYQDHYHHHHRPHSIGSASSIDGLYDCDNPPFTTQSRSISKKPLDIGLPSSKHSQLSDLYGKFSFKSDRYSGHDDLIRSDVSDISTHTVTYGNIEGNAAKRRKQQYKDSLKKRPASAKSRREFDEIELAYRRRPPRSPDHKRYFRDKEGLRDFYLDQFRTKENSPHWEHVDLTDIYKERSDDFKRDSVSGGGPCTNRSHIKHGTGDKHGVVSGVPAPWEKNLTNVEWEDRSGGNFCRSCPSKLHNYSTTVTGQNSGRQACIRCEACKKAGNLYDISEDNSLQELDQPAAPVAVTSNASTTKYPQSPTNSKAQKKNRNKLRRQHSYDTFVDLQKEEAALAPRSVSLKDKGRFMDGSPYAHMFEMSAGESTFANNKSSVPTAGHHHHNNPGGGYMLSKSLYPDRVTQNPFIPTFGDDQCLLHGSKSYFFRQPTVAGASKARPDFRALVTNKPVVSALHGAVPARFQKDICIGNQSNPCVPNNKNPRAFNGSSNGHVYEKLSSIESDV

[18] = system: Glutamate receptor ionotropic, NMDA 2B (Homo sapiens), Q13224 [N649A]; test: Inhibition of NR2B receptor M3c N649A mutant expressed in Xenopus oocytes assessed as NMDA current at 0.5 mM relative to control; type: cell-based; details: Oocyte
[19] = system: Glutamate receptor ionotropic, NMDA 2B (Homo sapiens), Q13224 [L650A]; test: Inhibition of NR2B receptor M3c L650A mutant expressed in Xenopus oocytes assessed as NMDA current at 0.5 mM relative to control; type: cell-based; details: Oocyte
[20] = system: Glutamate receptor ionotropic, NMDA 2B (Homo sapiens), Q13224 [A652T]; test: Inhibition of NR2B receptor M3c A652T mutant expressed in Xenopus oocytes assessed as NMDA current at 0.5 mM relative to control; type: cell-based; details: Oocyte
[21] = system: Glutamate receptor ionotropic, NMDA 2B (Homo sapiens), Q13224 [F653A]; test: Inhibition of NR2B receptor M3c F653A mutant expressed in Xenopus oocytes assessed as NMDA current at 0.5 mM relative to control; type: cell-based; details: Oocyte
[22] = system: Glutamate receptor ionotropic, NMDA 2B (Homo sapiens), Q13224 [F176A]; test: Binding affinity to NR2B receptor ATD F176A mutant
[23] = system: Glutamate receptor ionotropic, NMDA 2B (Homo sapiens), Q13224 [T233A]; test: Binding affinity to NR2B receptor ATD T233A mutant
[24] = Ratio of Kapp for wild type NR2B receptor to Kapp for NR2B receptor L643C/T647A mutant
[25] = Ratio of Kapp for wild type NR2B receptor to Kapp for NR2B receptor L643A/T103A mutant
[26] = Ratio of Kapp for wild type NR2B receptor to Kapp for NR2B receptor L643A/S645A mutant
[27] = Ratio of Kapp for wild type NR2B receptor to Kapp for NR2B receptor T647A/T103A mutant
[28] = Ratio of Kapp for wild type NR2B receptor to Kapp for NR2B receptor S645A/T103A mutant
[29] = system: Glutamate receptor ionotropic, NMDA 2B (Homo sapiens), Q13224 [L643A,K234A]; test: Binding affinity to NR2B receptor L643A/K234A mutant
[30] = Binding affinity to NR2B receptor […]/T103A mutant
[31] = Binding affinity to NR2B receptor […]/K234A mutant
[32] = Binding affinity to NR2B receptor […]/S645A mutant
[33] = system: Glutamate receptor ionotropic, NMDA 2B (Homo sapiens), Q13224 [T103A,K234A]; test: Binding affinity to NR2B receptor T103A/K234A mutant
[34] = Ratio of Kapp for wild type NR2B receptor to Kapp for NR2B receptor M3c I641A mutant
[35] = Ratio of Kapp for wild type NR2B receptor to Kapp for NR2B receptor S645A/K234A mutant

NC(=O)OCC(COC(N)=O)c1ccccc1
inhibition [1]: 64%
Kapp [2]: 4.23 mM
Kapp [3]: 2.92 mM
inhibition [4]: 83%
inhibition [5]: 85%
inhibition [6]: 72%
inhibition [7]: 62%
inhibition [8]: 77%
Activity [9]: inactive
inhibition [10]: 75%
inhibition [11]: 71%
Activity [12]: inactive
inhibition [13]: 71%
inhibition [14]: 84%
inhibition [15]: 75%
inhibition [16]: 73%
inhibition [17]: 73%
Activity [18]: inactive
inhibition [19]: 76%
inhibition [20]: 83%
Activity [21]: inactive
Kapp [22]: 2.77 mM
Kapp [23]: 2.56 mM
Ratio Ki(app) [24]: 21
Ratio Ki(app) [25]: 5.8
Ratio Ki(app) [26]: 7.7
Ratio Ki(app) [27]: 7.7
Ratio Ki(app) [28]: 7.2
Kapp [29]: 6.33 mM
Kapp [30]: 6.73 mM
Kapp [31]: 7 mM
Kapp [32]: 7.04 mM
Kapp [33]: 4.14 mM
Ratio Ki(app) [34]: 2.8
Ratio Ki(app) [35]: 8.2
